The results in this text go back to ChEMBL document CHEMBL1201862, “PubChem BioAssay data set” (2004).

Activity calls are given as the source filed them.

One assay deals with T1, Protein RecA (Mycobacterium tuberculosis, UniProt P9WHJ3).
T1 sequence (P9WHJ3 whole entry): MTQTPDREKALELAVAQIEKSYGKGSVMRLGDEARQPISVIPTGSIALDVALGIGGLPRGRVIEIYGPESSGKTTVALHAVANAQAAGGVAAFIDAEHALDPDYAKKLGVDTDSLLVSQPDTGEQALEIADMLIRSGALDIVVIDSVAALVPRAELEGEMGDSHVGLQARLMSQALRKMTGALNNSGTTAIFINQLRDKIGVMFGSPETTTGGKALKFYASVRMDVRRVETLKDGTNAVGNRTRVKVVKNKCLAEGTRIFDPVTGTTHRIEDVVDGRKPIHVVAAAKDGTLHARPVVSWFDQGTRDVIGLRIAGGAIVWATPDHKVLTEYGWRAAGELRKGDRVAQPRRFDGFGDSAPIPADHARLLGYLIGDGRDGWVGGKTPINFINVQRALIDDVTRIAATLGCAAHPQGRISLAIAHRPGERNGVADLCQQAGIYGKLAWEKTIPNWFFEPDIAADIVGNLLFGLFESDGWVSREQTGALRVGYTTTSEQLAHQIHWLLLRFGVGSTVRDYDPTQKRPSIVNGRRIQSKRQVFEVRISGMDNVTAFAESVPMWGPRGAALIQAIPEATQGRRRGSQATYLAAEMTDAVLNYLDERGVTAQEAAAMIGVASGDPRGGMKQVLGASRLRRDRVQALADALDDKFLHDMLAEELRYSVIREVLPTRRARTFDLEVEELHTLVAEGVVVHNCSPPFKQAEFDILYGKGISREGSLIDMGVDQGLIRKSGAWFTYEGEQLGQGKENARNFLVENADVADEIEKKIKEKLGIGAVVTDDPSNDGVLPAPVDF
Put plainly: Fluorescence Cell-Free Homogeneous Dose Retest to Identify Inhibitors of RecA-Intein Splicing Activity. [Related pubchem assays (depositor defined):AID2097, AID2223, AID489010, AID492950]. It is filed as functional.

Assay [1] has as its target T2, Microphthalmia-associated transcription factor (Homo sapiens, UniProt O75030).
T2 sequence (O75030 whole entry): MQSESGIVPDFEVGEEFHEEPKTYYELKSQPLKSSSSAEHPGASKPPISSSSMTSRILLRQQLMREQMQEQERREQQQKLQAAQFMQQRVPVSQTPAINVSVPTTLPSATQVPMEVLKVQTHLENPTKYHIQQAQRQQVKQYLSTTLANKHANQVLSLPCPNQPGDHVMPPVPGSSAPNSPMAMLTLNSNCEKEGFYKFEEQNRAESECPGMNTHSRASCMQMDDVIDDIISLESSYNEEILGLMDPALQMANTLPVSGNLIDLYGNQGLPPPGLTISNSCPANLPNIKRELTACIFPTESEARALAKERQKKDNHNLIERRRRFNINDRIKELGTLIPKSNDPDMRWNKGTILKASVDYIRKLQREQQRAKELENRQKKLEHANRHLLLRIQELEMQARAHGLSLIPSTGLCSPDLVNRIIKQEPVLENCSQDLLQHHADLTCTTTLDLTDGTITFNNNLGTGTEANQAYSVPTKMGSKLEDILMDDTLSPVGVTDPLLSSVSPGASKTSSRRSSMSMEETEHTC
Briefly: TRPM1 promoter luciferase signal decrease, dose response, MITF inhibitor project, cell-based, SK-MEL-5, cherry-picked, set 3 (AID 493073).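 Note: SK-MEL-5 melanoma cells with luciferase driven by the MITF target TRPM1 promoter.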 It is filed as functional.

The next assay concerns INS1. Briefly: beta cell apoptosis inhibitors, cytokine rescue, dose response, luminescence, retest (AID 449756).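 Note: cell death triggered by IL-1 beta plus TNF-alpha plus IFN-gamma mixture; protective hits raise ATP signal compared with cytokine alone wells.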 It is filed as functional, cell-based. The following applies: Rattus norvegicus.
Assay [2] has as its target T3, Replicative DNA helicase DnaB (Mycobacterium tuberculosis, UniProt P9WMR3).
T3 sequence (P9WMR3 whole entry): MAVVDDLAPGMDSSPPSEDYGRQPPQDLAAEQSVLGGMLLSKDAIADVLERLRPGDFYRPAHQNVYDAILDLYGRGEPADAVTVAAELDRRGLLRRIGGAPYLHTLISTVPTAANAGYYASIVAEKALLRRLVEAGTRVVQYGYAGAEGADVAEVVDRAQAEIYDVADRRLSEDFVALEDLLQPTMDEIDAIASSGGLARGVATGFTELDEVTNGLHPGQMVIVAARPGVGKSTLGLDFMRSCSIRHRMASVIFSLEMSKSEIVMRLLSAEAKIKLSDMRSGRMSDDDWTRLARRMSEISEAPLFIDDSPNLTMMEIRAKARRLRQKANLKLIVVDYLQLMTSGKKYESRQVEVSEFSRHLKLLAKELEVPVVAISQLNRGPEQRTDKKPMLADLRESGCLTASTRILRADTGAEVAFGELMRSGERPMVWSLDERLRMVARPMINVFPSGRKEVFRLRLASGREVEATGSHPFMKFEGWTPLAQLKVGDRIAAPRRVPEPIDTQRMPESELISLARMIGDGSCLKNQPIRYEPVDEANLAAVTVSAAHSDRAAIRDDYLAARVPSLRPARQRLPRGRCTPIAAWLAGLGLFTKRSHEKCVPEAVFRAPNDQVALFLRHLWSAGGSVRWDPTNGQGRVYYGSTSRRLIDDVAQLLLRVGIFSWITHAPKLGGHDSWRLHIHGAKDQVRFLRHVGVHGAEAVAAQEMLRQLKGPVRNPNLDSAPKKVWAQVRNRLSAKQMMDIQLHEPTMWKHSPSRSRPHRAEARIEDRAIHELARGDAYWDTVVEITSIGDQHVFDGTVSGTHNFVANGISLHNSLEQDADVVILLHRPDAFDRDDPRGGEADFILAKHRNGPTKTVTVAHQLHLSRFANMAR
Put plainly: DnaB intein splicing inhibitors, dose response, biochemical, cell-free fluorescence (AID 449749). It counts as functional.

In assay [3] the target is T4, Apoptotic protease-activating factor 1 (Homo sapiens, UniProt O14727).
T4 sequence (O14727 whole entry): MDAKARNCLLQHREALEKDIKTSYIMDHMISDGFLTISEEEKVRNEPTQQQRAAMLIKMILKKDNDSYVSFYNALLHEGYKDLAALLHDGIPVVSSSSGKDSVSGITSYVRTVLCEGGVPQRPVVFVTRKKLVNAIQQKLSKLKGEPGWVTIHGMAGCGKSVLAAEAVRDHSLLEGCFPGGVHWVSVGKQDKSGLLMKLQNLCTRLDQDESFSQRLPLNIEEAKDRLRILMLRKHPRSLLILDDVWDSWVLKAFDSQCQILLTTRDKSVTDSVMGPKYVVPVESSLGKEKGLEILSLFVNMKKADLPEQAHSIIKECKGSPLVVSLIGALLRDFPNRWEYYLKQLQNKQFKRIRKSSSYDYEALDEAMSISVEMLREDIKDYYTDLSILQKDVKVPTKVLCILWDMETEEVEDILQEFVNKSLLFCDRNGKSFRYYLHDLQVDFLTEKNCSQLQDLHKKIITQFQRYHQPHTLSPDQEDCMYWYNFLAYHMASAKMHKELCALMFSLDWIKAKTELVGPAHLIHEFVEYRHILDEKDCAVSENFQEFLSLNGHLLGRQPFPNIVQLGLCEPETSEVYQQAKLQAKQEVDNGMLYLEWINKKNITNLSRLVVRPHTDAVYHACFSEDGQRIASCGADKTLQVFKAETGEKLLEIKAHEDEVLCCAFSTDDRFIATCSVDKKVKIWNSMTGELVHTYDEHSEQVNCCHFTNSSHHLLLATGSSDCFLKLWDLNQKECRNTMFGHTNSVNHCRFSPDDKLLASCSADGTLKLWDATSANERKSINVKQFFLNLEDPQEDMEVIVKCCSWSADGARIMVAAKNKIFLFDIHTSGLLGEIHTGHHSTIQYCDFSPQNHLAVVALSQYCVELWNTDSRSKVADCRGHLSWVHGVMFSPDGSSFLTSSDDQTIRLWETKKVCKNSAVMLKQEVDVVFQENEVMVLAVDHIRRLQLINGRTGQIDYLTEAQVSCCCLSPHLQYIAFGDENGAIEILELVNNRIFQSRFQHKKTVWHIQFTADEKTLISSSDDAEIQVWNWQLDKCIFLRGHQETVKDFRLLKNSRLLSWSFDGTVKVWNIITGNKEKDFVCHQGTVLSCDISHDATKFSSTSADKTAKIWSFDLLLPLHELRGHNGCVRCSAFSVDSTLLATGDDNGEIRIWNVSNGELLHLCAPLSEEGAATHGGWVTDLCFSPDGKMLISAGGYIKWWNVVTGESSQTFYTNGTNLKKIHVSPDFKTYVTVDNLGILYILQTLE
It is filed as functional.

For assay [4], the target named is T5, DNA repair protein RAD52 homolog (Homo sapiens, UniProt P43351).
T5 sequence (P43351 whole entry): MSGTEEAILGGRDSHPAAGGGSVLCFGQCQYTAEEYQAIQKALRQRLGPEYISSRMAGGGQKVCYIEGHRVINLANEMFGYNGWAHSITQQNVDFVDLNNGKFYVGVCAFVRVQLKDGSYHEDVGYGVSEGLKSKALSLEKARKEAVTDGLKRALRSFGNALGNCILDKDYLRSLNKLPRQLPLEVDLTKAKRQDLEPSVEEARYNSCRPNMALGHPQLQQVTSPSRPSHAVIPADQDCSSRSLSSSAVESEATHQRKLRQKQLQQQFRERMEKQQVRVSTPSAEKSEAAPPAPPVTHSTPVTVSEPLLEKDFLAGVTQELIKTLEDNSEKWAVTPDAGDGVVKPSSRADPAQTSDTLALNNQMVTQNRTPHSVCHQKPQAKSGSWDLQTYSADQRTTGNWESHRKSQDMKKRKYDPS
It counts as functional, biochemical.

Assay [5] addresses T6, Rac GTPase-activating protein 1 (Homo sapiens, UniProt Q9H0H5).
T6 sequence (Q9H0H5 whole entry): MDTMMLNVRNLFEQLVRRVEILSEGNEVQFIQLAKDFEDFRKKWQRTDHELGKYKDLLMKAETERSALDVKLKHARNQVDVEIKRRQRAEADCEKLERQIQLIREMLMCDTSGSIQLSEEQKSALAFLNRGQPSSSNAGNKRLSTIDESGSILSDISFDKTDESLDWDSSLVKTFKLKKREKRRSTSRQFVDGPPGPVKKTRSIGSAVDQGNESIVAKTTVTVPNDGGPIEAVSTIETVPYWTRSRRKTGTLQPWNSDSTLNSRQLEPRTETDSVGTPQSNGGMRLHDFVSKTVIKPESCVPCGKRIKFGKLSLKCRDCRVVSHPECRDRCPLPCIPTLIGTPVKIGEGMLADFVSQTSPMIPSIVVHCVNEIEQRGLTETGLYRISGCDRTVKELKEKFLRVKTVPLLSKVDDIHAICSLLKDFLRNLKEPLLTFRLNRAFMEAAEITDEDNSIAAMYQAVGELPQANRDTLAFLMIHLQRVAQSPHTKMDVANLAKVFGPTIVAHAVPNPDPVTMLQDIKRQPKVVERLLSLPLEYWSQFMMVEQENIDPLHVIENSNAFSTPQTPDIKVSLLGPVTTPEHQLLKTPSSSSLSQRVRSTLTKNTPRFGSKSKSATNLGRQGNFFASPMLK
Put plainly: MgcRacGAP GTPase-activating activity inhibitors, confirmation, biochemical, ADP Hunter fluorescence, primary and confirmatory (AID 624330). It counts as functional.

Assay [6] in a line: HeLa cell cytotoxicity, dose response, cytotoxicity control for MgcRacGAP inhibitor project (AID 624300). It is filed as functional.
In assay [7] the target is Glucose-6-phosphate 1-dehydrogenase (Homo sapiens, UniProt P11413). Briefly: human G6PD enzyme inhibitors, dose response, selectivity assay for P. falciparum G6PD inhibitor project, biochemical, fluorescence (AID 504792). It is filed as functional.
Sequence of Glucose-6-phosphate 1-dehydrogenase (P11413 whole entry): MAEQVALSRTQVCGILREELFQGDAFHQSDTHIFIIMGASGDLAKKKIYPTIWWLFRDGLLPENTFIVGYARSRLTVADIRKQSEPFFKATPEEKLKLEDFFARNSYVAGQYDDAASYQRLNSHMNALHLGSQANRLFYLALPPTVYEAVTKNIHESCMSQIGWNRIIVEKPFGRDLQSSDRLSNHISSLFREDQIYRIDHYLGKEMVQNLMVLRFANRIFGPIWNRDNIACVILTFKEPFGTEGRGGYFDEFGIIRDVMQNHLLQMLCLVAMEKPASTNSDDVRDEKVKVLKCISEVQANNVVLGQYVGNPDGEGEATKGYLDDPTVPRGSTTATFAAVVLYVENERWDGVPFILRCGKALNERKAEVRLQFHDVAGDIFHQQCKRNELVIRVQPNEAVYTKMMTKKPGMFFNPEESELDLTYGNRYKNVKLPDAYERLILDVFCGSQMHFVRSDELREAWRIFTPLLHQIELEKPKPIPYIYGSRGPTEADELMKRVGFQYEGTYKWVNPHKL
The target of another assay is Kallikrein-7 (Homo sapiens, UniProt P49862). Put plainly: Fluorescence Intensity-based biochemical primary high throughput dose response assay to identify activators of kallikrein-7 (K7) zymogen.
Sequence of Kallikrein-7 (P49862 whole entry): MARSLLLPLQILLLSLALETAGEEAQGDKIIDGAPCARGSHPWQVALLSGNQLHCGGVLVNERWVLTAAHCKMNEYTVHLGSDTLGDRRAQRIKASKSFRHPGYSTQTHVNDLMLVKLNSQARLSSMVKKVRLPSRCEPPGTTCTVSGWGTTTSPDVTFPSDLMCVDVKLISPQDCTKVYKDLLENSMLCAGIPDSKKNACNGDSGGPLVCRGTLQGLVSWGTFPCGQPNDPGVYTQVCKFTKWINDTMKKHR

Consider `O=C(NC1=C(Nc2ccc(Cl)cc2)C(=O)c2ccccc2C1=O)c1ccccc1`, for which the EC50 at Protein RecA is 6.55 µM (active). For the same compound, the AC50 in assay [1] is 0.93 µM (active); in the assay with INS1 it was 6.9 µM (active); in assay [2] it was 10.4 µM (active). Moreover, in [3], the IC50 is 39.7 µM (active).
`CCOc1cc(CNc2ccc3c[nH]nc3c2)ccc1OC`: the EC50 at Protein RecA was 7.37 µM (active). Moreover, in assay [2], the AC50 was > 380 µM (inactive). Further, in assay [3], the IC50 is 25.2 µM (active).
Consider `CN(C)/C=N/c1ccc2[nH]c3c4ccccc4nc-3cc2c1`, for which, in assay [4], the AC50 is 3.13 µM (active). In addition, the IC50 in assay [5] was 52.8 µM (active); in assay [7], > 80 µM (inactive); in assay [3], 30.7 µM (active). Moreover, the CC50 in assay [6] is 100 µM (active). For the same compound, at Kallikrein-7, the EC50 is > 2.57 µM (active).
